Series [1] can be described thus: PLAP-mediated conversion of prodrug to drug. In kind it is ADME.
A short description of series [2]: Aqueous solubility by radiotracer analysis method. The class given is physicochemical. The following applies: buffer.
Series [3] in a line: Solubility in phosphate buffer by radiotracer analysis method. The class given is physicochemical.

Converted amounts (≈) assume the structure as drawn.

With `N.N.N.N.O=c1[nH]c(-c2ccc(OP(=O)(O)O)cc2OP(=O)(O)O)nc2ccc([125I])cc12`, in series [1], the result was Active.
For the compound `O=c1[nH]c(-c2ccc(O)cc2O)nc2ccc([127I])cc12`, in series [2], the solubility (commonly the concentration that dissolves in the medium under given conditions) is 0.00968 µg/mL (≈ 0.0255 µM).
As for `N.N.N.N.O=P(O)(O)Oc1ccc(-c2nc(O)c3cc([127I])ccc3n2)c(OP(=O)(O)O)c1`, the concentration in solution in series [3] (solubility) came to 4350 µg/mL. The result in series [1] was Active.
